Key:
MKK7 = molecular target: T1, MKK7 (Homo sapiens, UniProt O14733); test: KINOMEscan; assay type: binding; details: read-out: %Ctrl @ 10000nM
T1 construct: purchased DiscoverX KINOMEscan

PKN1 = molecular target: T2, PKN1 (Homo sapiens, UniProt Q16512); test: KINOMEscan; assay type: binding; details: read-out: %Ctrl @ 10000nM
T2 construct: purchased DiscoverX KINOMEscan

MAP3K1 = molecular target: T3, MAP3K1 (Homo sapiens, UniProt Q13233); test: KINOMEscan; assay type: binding; details: read-out: %Ctrl @ 10000nM
T3 construct: purchased DiscoverX KINOMEscan

EPHA7 = molecular target: T4, EPHA7 (Homo sapiens, UniProt Q15375); test: KINOMEscan; assay type: binding; details: read-out: %Ctrl @ 10000nM
T4 construct: purchased DiscoverX KINOMEscan

PCTK1 = molecular target: T5, PCTK1 (Homo sapiens, UniProt Q00536); test: KINOMEscan; assay type: binding; details: read-out: %Ctrl @ 10000nM
T5 construct: purchased DiscoverX KINOMEscan

IRAK4 = molecular target: T6, IRAK4 (Homo sapiens, UniProt Q9NWZ3); test: KINOMEscan; assay type: binding; details: read-out: %Ctrl @ 10000nM
T6 construct: purchased DiscoverX KINOMEscan

TXK = molecular target: T7, TXK (Homo sapiens, UniProt P42681); test: KINOMEscan; assay type: binding; details: read-out: %Ctrl @ 10000nM
T7 construct: DNA label for qPCR (T7 phage fusion or DNA tag); purchased DiscoverX scanMAX; host or cells: E. coli BL21-derived (T7 phage) or HEK-293

ANKK1 = molecular target: T8, ANKK1 (Homo sapiens, UniProt Q8NFD2); test: KINOMEscan; assay type: binding; details: read-out: %Ctrl @ 10000nM
T8 construct: purchased DiscoverX KINOMEscan

EPHA8 = molecular target: T9, EPHA8 (Homo sapiens, UniProt P29322); test: KINOMEscan; assay type: binding; details: read-out: %Ctrl @ 10000nM
T9 construct: purchased DiscoverX KINOMEscan

CDKL5 = molecular target: T10, CDKL5 (Homo sapiens, UniProt O76039); test: KINOMEscan; assay type: binding; details: read-out: %Ctrl @ 10000nM
T10 construct: purchased DiscoverX KINOMEscan

CAMK2D = molecular target: T11, CAMK2D (Homo sapiens, UniProt Q13557); test: KINOMEscan; assay type: binding; details: read-out: %Ctrl @ 10000nM
T11 construct: purchased DiscoverX KINOMEscan

CDKL3 = molecular target: T12, CDKL3 (Homo sapiens, UniProt Q8IVW4); test: KINOMEscan; assay type: binding; details: read-out: %Ctrl @ 10000nM
T12 construct: purchased DiscoverX KINOMEscan

YANK2 = molecular target: T13, YANK2 (Homo sapiens, UniProt Q9NY57); test: KINOMEscan; assay type: binding; details: read-out: %Ctrl @ 10000nM
T13 construct: DNA label for qPCR (T7 phage fusion or DNA tag); purchased DiscoverX scanMAX; host or cells: E. coli BL21-derived (T7 phage) or HEK-293

TRKB = molecular target: T14, TRKB (Homo sapiens, UniProt Q16620); test: KINOMEscan; assay type: binding; details: read-out: %Ctrl @ 10000nM
T14 construct: purchased DiscoverX KINOMEscan
T14 sequence (Q16620 32-822): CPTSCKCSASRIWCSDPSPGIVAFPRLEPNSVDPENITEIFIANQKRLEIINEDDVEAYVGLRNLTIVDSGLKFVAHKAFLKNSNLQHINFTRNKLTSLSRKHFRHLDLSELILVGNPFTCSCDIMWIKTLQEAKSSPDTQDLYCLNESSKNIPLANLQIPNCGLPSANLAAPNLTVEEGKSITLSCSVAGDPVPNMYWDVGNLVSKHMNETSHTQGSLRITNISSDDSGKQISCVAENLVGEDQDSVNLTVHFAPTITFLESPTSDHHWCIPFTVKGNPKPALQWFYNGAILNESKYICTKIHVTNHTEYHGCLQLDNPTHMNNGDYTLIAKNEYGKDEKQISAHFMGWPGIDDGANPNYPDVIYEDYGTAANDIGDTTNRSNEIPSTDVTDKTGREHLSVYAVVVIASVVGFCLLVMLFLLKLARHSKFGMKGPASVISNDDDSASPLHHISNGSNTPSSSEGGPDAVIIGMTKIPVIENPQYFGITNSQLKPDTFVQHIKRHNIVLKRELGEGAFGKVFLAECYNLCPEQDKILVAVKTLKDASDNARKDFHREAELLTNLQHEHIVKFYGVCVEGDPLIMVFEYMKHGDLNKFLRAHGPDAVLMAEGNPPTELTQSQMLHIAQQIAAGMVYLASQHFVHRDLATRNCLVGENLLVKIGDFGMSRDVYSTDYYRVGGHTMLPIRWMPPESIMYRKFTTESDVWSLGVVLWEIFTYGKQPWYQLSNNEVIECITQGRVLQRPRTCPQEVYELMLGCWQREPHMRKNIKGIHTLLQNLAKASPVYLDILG

Protein binding = details: rat
[1] = molecular target: T15, JAK1(JH2domain-pseudokinase) (Homo sapiens, UniProt P23458); test: KINOMEscan; assay type: binding; details: read-out: %Ctrl @ 10000nM
T15 construct: JAK1(JH2domain-pseudokinase); purchased DiscoverX KINOMEscan

PRKCE = molecular target: T16, PRKCE (Homo sapiens, UniProt Q02156); test: KINOMEscan; assay type: binding; details: read-out: %Ctrl @ 10000nM
T16 construct: purchased DiscoverX KINOMEscan

ROCK2 = molecular target: T17, ROCK2 (Homo sapiens, UniProt O75116); test: KINOMEscan; assay type: binding; details: read-out: %Ctrl @ 10000nM
T17 construct: purchased DiscoverX KINOMEscan
T17 sequence (O75116 whole entry): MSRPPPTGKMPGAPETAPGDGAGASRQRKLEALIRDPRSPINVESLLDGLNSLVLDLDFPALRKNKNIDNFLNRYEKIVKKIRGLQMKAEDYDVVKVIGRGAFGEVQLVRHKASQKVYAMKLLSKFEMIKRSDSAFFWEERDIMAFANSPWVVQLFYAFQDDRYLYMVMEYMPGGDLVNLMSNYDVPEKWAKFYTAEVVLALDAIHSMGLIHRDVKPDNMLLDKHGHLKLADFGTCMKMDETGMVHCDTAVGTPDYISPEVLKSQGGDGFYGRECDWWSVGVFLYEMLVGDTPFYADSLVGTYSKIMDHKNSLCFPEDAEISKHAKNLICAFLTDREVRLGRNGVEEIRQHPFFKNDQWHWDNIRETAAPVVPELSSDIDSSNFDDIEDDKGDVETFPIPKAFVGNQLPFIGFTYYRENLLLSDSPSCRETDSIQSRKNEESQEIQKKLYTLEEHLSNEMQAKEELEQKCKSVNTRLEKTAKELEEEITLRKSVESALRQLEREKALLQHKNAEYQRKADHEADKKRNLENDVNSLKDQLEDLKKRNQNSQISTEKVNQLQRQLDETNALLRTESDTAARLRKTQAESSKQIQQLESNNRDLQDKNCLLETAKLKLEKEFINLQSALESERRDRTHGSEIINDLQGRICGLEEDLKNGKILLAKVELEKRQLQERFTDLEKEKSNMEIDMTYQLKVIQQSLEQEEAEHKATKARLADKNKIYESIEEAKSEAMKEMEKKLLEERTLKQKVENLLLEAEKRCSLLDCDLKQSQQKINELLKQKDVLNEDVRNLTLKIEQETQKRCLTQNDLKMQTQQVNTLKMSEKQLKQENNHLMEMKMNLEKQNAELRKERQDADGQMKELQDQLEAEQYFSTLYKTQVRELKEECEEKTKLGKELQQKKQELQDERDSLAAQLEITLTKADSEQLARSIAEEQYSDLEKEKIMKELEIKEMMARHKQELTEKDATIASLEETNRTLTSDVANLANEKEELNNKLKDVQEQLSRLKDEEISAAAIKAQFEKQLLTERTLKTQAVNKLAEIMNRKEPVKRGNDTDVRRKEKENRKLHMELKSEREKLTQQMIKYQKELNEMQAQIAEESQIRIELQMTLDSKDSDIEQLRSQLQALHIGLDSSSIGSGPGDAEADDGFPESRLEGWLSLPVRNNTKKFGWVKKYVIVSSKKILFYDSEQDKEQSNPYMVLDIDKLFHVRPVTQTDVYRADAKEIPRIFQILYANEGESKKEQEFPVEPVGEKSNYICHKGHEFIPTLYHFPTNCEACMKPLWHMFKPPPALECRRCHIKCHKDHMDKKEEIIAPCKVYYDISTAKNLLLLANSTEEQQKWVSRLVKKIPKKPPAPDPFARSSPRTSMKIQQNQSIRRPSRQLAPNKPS

NDR2 = molecular target: T18, NDR2 (Homo sapiens, UniProt Q9Y2H1); test: KINOMEscan; assay type: binding; details: read-out: %Ctrl @ 10000nM
T18 construct: purchased DiscoverX KINOMEscan

CDC2L5 = molecular target: T19, CDC2L5 (Homo sapiens, UniProt Q14004); test: KINOMEscan; assay type: binding; details: read-out: %Ctrl @ 10000nM
T19 construct: purchased DiscoverX KINOMEscan

PHKG1 = molecular target: T20, PHKG1 (Homo sapiens, UniProt Q16816); test: KINOMEscan; assay type: binding; details: read-out: %Ctrl @ 10000nM
T20 construct: purchased DiscoverX KINOMEscan

EGFR(L858R,T790M) = molecular target: T21, EGFR(L858R,T790M) (Homo sapiens, UniProt P00533, L858R/T790M); test: KINOMEscan; assay type: binding; details: read-out: %Ctrl @ 10000nM
T21 construct: purchased DiscoverX KINOMEscan

p38-beta = molecular target: T22, p38-beta (Homo sapiens, UniProt Q15759); test: KINOMEscan; assay type: binding; details: read-out: %Ctrl @ 10000nM
T22 construct: purchased DiscoverX KINOMEscan
T22 sequence (Q15759 whole entry): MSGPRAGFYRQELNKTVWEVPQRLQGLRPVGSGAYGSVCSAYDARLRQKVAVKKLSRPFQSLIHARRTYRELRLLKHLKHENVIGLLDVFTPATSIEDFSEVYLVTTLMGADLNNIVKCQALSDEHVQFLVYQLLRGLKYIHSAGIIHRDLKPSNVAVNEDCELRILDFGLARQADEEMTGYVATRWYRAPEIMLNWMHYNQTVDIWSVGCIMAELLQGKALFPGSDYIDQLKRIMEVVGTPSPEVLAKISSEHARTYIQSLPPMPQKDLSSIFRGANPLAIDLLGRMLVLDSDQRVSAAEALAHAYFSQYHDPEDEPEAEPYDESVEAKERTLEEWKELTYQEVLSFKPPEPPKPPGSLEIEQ

BRAF(V600E) = molecular target: T23, BRAF(V600E) (Homo sapiens, UniProt P15056, V600E); test: KINOMEscan; assay type: binding; details: read-out: %Ctrl @ 10000nM
T23 construct: purchased DiscoverX KINOMEscan

PCTK3 = molecular target: T24, PCTK3 (Homo sapiens, UniProt Q07002); test: KINOMEscan; assay type: binding; details: read-out: %Ctrl @ 10000nM
T24 construct: purchased DiscoverX KINOMEscan

p38-delta = molecular target: T25, p38-delta (Homo sapiens, UniProt O15264); test: KINOMEscan; assay type: binding; details: read-out: %Ctrl @ 10000nM
T25 construct: purchased DiscoverX KINOMEscan

IRAK3 = molecular target: T26, IRAK3 (Homo sapiens, UniProt Q9Y616); test: KINOMEscan; assay type: binding; details: read-out: %Ctrl @ 10000nM
T26 construct: purchased DiscoverX KINOMEscan

TRKC = molecular target: T27, TRKC (Homo sapiens, UniProt Q16288); test: KINOMEscan; assay type: binding; details: read-out: %Ctrl @ 10000nM
T27 construct: purchased DiscoverX KINOMEscan
T27 sequence (Q16288 32-839): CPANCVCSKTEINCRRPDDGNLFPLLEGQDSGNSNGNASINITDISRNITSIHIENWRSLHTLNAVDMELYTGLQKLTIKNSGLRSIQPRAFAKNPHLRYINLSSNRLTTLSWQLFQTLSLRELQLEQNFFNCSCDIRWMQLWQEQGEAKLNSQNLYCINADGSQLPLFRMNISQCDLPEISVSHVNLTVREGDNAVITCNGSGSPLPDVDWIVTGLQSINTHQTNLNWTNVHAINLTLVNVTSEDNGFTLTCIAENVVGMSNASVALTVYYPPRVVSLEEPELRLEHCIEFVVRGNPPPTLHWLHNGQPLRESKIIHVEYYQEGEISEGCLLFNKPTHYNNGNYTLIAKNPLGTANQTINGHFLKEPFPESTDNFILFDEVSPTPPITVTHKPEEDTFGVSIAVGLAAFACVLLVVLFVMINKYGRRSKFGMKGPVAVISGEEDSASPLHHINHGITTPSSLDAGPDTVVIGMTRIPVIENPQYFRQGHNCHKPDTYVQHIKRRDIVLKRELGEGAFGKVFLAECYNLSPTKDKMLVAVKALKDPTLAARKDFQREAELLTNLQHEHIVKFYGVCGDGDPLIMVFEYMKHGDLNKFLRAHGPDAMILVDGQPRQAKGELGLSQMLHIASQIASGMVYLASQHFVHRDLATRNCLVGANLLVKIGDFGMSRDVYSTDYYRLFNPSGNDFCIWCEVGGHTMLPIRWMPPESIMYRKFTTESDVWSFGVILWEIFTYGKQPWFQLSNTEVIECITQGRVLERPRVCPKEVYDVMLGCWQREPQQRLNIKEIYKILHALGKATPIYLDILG

[2] = molecular target: T28, ABL1(E255K)-phosphorylated (Homo sapiens, UniProt P00519, E255K); test: KINOMEscan; assay type: binding; details: read-out: %Ctrl @ 10000nM
T28 construct: purchased DiscoverX KINOMEscan

GRK7 = molecular target: T29, GRK7 (Homo sapiens, UniProt Q8WTQ7); test: KINOMEscan; assay type: binding; details: read-out: %Ctrl @ 10000nM
T29 construct: purchased DiscoverX KINOMEscan

Plasma stability = assay type: in vitro ADME; details: human, read-out: Plasma Stability T1/2
YANK3 = molecular target: T30, YANK3 (Homo sapiens, UniProt Q86UX6); test: KINOMEscan; assay type: binding; details: read-out: %Ctrl @ 10000nM
T30 construct: purchased DiscoverX scanMAX; host or cells: E. coli BL21-derived host (T7 phage) or HEK-293

DRAK1 = molecular target: T31, DRAK1 (Homo sapiens, UniProt Q9UEE5); test: KINOMEscan; assay type: binding; details: read-out: %Ctrl @ 10000nM
T31 construct: purchased DiscoverX KINOMEscan

SRC = molecular target: T32, SRC (Homo sapiens, UniProt P12931); test: KINOMEscan; assay type: binding; details: read-out: %Ctrl @ 10000nM
T32 construct: purchased DiscoverX KINOMEscan

LZK = molecular target: T33, LZK (Homo sapiens, UniProt O43283); test: KINOMEscan; assay type: binding; details: read-out: %Ctrl @ 10000nM
T33 construct: purchased DiscoverX KINOMEscan

MEK4 = molecular target: T34, MEK4 (Homo sapiens, UniProt P45985); test: KINOMEscan; assay type: binding; details: read-out: %Ctrl @ 10000nM
T34 construct: purchased DiscoverX KINOMEscan
T34 sequence (P45985 whole entry): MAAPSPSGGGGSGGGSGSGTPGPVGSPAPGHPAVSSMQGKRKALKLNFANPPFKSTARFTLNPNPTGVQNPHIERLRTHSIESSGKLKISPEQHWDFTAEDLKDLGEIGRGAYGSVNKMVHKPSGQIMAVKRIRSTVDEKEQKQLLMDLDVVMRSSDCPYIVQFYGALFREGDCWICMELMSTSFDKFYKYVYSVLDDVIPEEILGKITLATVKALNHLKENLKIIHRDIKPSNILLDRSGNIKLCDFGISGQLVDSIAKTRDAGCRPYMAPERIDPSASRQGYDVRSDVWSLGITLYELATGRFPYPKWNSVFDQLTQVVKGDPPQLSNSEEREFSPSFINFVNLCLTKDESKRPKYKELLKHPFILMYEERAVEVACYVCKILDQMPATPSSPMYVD

CASK = molecular target: T35, CASK (Homo sapiens, UniProt O14936); test: KINOMEscan; assay type: binding; details: read-out: %Ctrl @ 10000nM
T35 construct: purchased DiscoverX KINOMEscan

CDK8 = molecular target: T36, CDK8 (Homo sapiens, UniProt P49336); test: KINOMEscan; assay type: binding; details: read-out: %Ctrl @ 10000nM
T36 construct: purchased DiscoverX KINOMEscan

DLK = molecular target: T37, DLK (Homo sapiens, UniProt Q12852); test: KINOMEscan; assay type: binding; details: read-out: %Ctrl @ 10000nM
T37 construct: purchased DiscoverX KINOMEscan
T37 sequence (Q12852 whole entry): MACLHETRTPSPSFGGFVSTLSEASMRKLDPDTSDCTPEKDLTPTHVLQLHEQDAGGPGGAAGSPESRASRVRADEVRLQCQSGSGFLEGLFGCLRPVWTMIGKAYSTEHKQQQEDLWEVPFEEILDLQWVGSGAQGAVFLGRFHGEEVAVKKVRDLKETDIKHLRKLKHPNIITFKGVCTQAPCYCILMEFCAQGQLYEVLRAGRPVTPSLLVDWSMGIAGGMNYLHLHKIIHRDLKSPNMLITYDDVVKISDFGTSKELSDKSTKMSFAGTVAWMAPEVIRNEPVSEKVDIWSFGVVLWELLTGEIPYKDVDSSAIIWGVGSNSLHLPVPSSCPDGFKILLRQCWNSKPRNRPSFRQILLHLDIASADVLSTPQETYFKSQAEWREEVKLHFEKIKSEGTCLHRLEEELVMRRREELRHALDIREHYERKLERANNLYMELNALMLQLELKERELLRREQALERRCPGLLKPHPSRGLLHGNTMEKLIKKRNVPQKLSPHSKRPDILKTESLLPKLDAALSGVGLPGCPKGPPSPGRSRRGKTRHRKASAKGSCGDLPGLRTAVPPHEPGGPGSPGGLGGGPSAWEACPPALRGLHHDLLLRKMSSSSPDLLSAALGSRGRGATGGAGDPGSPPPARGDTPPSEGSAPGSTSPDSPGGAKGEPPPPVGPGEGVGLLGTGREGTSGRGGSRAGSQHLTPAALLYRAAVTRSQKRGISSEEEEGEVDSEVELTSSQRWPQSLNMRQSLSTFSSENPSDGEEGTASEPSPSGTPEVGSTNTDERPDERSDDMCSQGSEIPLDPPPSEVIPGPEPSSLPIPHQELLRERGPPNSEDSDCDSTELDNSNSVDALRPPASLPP

TNK1 = molecular target: T38, TNK1 (Homo sapiens, UniProt Q13470); test: KINOMEscan; assay type: binding; details: read-out: %Ctrl @ 10000nM
T38 construct: purchased DiscoverX KINOMEscan

MEK2 = molecular target: T39, MEK2 (Homo sapiens, UniProt P36507); test: KINOMEscan; assay type: binding; details: read-out: %Ctrl @ 10000nM
T39 construct: purchased DiscoverX KINOMEscan

PFPK5(P.falciparum) = molecular target: T40, PFPK5(P.falciparum) (Plasmodium falciparum, UniProt P61075); test: KINOMEscan; assay type: binding; details: read-out: %Ctrl @ 10000nM
T40 construct: purchased DiscoverX KINOMEscan
T40 sequence (P61075 whole entry): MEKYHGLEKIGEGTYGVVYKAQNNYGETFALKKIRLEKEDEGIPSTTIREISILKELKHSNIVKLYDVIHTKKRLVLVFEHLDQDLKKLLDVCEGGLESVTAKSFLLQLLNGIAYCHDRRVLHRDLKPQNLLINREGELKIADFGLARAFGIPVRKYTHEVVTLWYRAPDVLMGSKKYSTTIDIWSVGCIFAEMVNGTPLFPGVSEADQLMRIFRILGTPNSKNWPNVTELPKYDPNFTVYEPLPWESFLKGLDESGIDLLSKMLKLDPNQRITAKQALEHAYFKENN

**Q.** With `CC(C)c1ccc(CC(=O)N2CCN(c3ccc(C#N)nn3)CC2)cc1` [PZ-2891, 6-(4-(2-(4-isopropylphenyl)acetyl)piperazin-1-yl)pyridazine-3-carbonitrile] as the compound, how does the remaining binding at 10 µM (MKK7) read?
**A.** 84%

**Q.** And the remaining binding at 10 µM (PKN1)?
**A.** 69%

**Q.** And the remaining binding at 10 µM (MAP3K1)?
**A.** 89%

**Q.** What about the remaining binding at 10 µM (EPHA7) of the same compound?
**A.** 92%

**Q.** What about the remaining binding at 10 µM (PCTK1) of the same compound?
**A.** 76%

**Q.** And the remaining binding at 10 µM (IRAK4)?
**A.** 93%

**Q.** And the remaining binding at 10 µM (TXK)?
**A.** 92%

**Q.** What about the remaining binding at 10 µM (ANKK1) of the same compound?
**A.** 78%

**Q.** And the remaining binding at 10 µM (EPHA8)?
**A.** 95%

**Q.** What about the remaining binding at 10 µM (CDKL5) of the same compound?
**A.** 67%

**Q.** What about the remaining binding at 10 µM (CAMK2D) of the same compound?
**A.** 91%

**Q.** And the remaining binding at 10 µM (CDKL3)?
**A.** 86%

**Q.** And the remaining binding at 10 µM (YANK2)?
**A.** 100%

**Q.** And the remaining binding at 10 µM (TRKB)?
**A.** 100%

**Q.** And the fraction unbound (Protein binding)?
**A.** 0.09

**Q.** And the remaining binding at 10 µM [1]?
**A.** 47%

**Q.** And the remaining binding at 10 µM (PRKCE)?
**A.** 70%

**Q.** And the remaining binding at 10 µM (ROCK2)?
**A.** 100%

**Q.** What about the remaining binding at 10 µM (NDR2) of the same compound?
**A.** 94%

**Q.** And the remaining binding at 10 µM (CDC2L5)?
**A.** 81%

**Q.** What about the remaining binding at 10 µM (PHKG1) of the same compound?
**A.** 88%

**Q.** What about the remaining binding at 10 µM (EGFR(L858R,T790M)) of the same compound?
**A.** 98%

**Q.** And the remaining binding at 10 µM (p38-beta)?
**A.** 96%

**Q.** What about the remaining binding at 10 µM (BRAF(V600E)) of the same compound?
**A.** 100%

**Q.** And the remaining binding at 10 µM (PCTK3)?
**A.** 92%

**Q.** What about the remaining binding at 10 µM (p38-delta) of the same compound?
**A.** 76%

**Q.** What about the remaining binding at 10 µM (IRAK3) of the same compound?
**A.** 42%

**Q.** What about the remaining binding at 10 µM (TRKC) of the same compound?
**A.** 100%

**Q.** What about the remaining binding at 10 µM [2] of the same compound?
**A.** 53%

**Q.** And the remaining binding at 10 µM (GRK7)?
**A.** 93%

**Q.** And the half-life (Plasma stability)?
**A.** > 50 h

**Q.** What about the remaining binding at 10 µM (YANK3) of the same compound?
**A.** 84%

**Q.** What about the remaining binding at 10 µM (DRAK1) of the same compound?
**A.** 99%

**Q.** And the remaining binding at 10 µM (SRC)?
**A.** 97%

**Q.** And the remaining binding at 10 µM (LZK)?
**A.** 89%

**Q.** What about the remaining binding at 10 µM (MEK4) of the same compound?
**A.** 100%

**Q.** And the remaining binding at 10 µM (CASK)?
**A.** 85%

**Q.** What about the remaining binding at 10 µM (CDK8) of the same compound?
**A.** 83%

**Q.** What about the remaining binding at 10 µM (DLK) of the same compound?
**A.** 100%

**Q.** What about the remaining binding at 10 µM (TNK1) of the same compound?
**A.** 100%

**Q.** What about the remaining binding at 10 µM (MEK2) of the same compound?
**A.** 80%

**Q.** And the remaining binding at 10 µM (PFPK5(P.falciparum))?
**A.** 99%
